Reference: patent publication US12414560B2, “Pesticidal compositions and related methods” (CJB Applied Technologies LLC, priority 2017, dated 2025)
“And” between values parts separate entries of the source, which are not always exact repeats. Equal values may be shown once.

Columns and labels:
[1] = tested on: natural strains of Didymella; experiment: Watermelon Didymella (Gummy Stem Rot) field test, natural infection, disease severity rating; type: in vivo, Didymella on watermelon plants
Procedure: Watermelon plants were grown in normal field conditions subject to infection by natural strains of Didymella. The watermelons where then treated with: (a) a FRAC Group 11 fungicide, azoxystrobin alone; (b) ADJ1 alone; (c) azoxystrobin plus ADJ2; (d) azoxystrobin plus a typical commercial adjuvant (commercially available as Ad-Spray™); and (e) azoxystrobin plus chlorothalonil and commercial adjuvant. Disease severity ratings were taken and illustrated improved disease control of natural strains with ADJ1 compared to treatment with azoxystrobin alone or azoxystrobin plus commercial adjuvant, and equivalent control to azoxystrobin plus chlorothalonil and commercial adjuvant.

[2] = tested on: sensitive/susceptible strain of Didymella sp. (gummy stem rot); experiment: Petri dish test (zone of inhibition), radial growth, sensitive/susceptible strain of Didymella sp.; type: cell-based; settings: for radial growth, 18 hours / radial growth, 24 hours / radial growth, 36 hours / radial growth, 48 hours / radial growth, 12 hours: sensitive strain
Procedure: (§1) Petri dish tests (i.e., zone of inhibition tests) were conducted to compare the efficacy of azoxystrobin against both sensitive/susceptible and resistant strains of Didymella sp. (gummy stem rot).
Petri dish tests (i.e., zone of inhibition tests) were conducted to compare four rates of three adjuvant compositions (ADJ1, AJD2, and ADJ3 (N-methylpyrrolidone)) on sensitive and resistant strains of Didymella at a fixed treatment rate with a FRAC Group 11 fungicide, azoxystrobin. […]

[3] = tested on: resistant strain of Didymella sp. (gummy stem rot); experiment: Petri dish test (zone of inhibition), radial growth, resistant strain of Didymella sp.; type: cell-based
Procedure: as §1
Petri dish tests (i.e., zone of inhibition tests) were conducted to compare four rates of three adjuvant compositions (ADJ1, AJD2, and ADJ3 (N-methylpyrrolidone)) on sensitive and resistant strains of Didymella at a fixed treatment rate with a FRAC Group 11 fungicide, azoxystrobin.
Petri dish tests (i.e., zone of inhibition tests) were conducted to compare the efficacy of azoxystrobin (a strobilurin, quinone outside inhibitor (QOI), and member of Fungicide Resistance Action Committee (FRAC) Group 11) against resistant strains of Didymella sp. (gummy stem rot). Various organic solvents (adjuvants) were utilized at varying rates (6 fluid ounces/acre or 3 ounces/acre).

[4] = tested on: Morning Glory (MG); experiment: Herbicide burndown testing, Morning Glory; settings: in vivo; further: test concentration or dose not given here
Procedure: (§2) Burndown (BD) testing was conducted on Morning Glory (MG), Goosegrass (GG), Florida Beggarweed (FB) with an herbicide, Gramoxone® (paraquat—N,N′-dimethyl-4,4′-bipyridinium dichloride). Various amounts of Crop Oil Concentrate™ (COC) and an organic solvent adjuvant, Benzyl Acetate (BA), were utilized in conjunction with the herbicide. Crop Oil Concentrate™ (COC) is commonly used to enhance the deposition and spreading of herbicides on the leaf surface. The Crop Oil Concentrate™ (COC) included paraffinic petroleum oil, tall oil fatty acids and alkylphenol ethoxylates. The results are summarized in Table 20 and show a substantial increase in burndown rate when the organic solvent adjuvant is combined with an herbicide. The results also show a substantial increase in burndown rate compared to the combination of herbicide and Crop Oil Concentrate™ (COC).

[5] = tested on: Goosegrass (GG); experiment: Herbicide burndown testing, Goosegrass; settings: in vivo; further: test concentration or dose not given here
Procedure: as §2

[6] = tested on: resistant strains of Rhizoctonia solani (brown patch, stem rot, and/or root rot); experiment: Petri dish test (zone of inhibition), resistant strains of Rhizoctonia solani; type: cell-based; settings: organic solvent composition (where used) 6 fluid ounces/acre; for % Reduction in Radial Growth: 48 hours, vs untreated
Procedure: Petri dish tests (i.e., zone of inhibition tests) were conducted to compare the efficacy of tebuconazole (demethylation inhibitor, […], a triazole, and member of Fungicide Resistance Action Committee (FRAC) Group 3) against resistant strains of Rhizoctonia solani (brown patch, stem rot, and/or root rot). Various organic solvents (adjuvants) were utilized at 6 fluid ounces/acre and compared with just the active ingredient alone. The results are summarized in Table 19 and show the organic solvents provide a substantial resistant strain growth reduction compared to a FRAC Group 3 active ingredient utilized alone.

[7] = tested on: azoxystrobin resistant strain of Didymella; experiment: Watermelon Didamella (Gummy Stem Rot) field test, inoculated plants, disease severity rating; type: in vivo, Didymella on watermelon plants; design: key: based on counts of active fungal infection sites on leaves; settings: adjuvant rate 6 fl oz/acre
Procedure: Watermelon plants were inoculated with an azoxystrobin resistant strain of Didymella. The watermelon plants were then treated with: (a) a FRAC Group 11 fungicide, azoxystrobin alone; (b) azoxystrobin plus ADJ1; (c) azoxystrobin plus ADJ2; (d) azoxystrobin plus a typical commercial adjuvant (commercially available as Ad-Spray™); and (e) azoxystrobin plus chlorothalonil and commercial adjuvant (commercially available as Ad-Spray™). Disease severity ratings were taken and illustrated improved disease control of resistant strain with ADJ1 and ADJ2 compared to treatment with azoxystrobin alone, azoxystrobin plus commercial adjuvant, and azoxystrobin plus chlorothalonil and commercial adjuvant, especially at lower rates of azoxystrobin. Severity rating were based on multiple counts of active fungal infection sites on the leaves of the plants.

[8] = tested on: natural strains of Cercospora (known to be resistant to azoxystrobin); experiment: Soybean Cercospora (Frog Eye Leaf Spot) field test, severity ratings; type: in vivo, Cercospora on soybean plants; settings: azoxystrobin 0.5×
Procedure: Soybean plants were grown in normal field conditions subject to infection by natural strains of Cercospora (known to be resistant to azoxystrobin) then treated with: (a) a FRAC Group 11 fungicide, azoxystrobin alone; (b) azoxystrobin plus ADJ1; (c) azoxystrobin plus ADJ2; (d) azoxystrobin plus a typical commercial adjuvant (commercially available as Preference®). Disease severity ratings were taken and illustrated improved disease control with ADJ1 and ADJ2 compared to treatment with azoxystrobin alone or azoxystrobin plus commercial adjuvant. Duncan Multiple Range treatment of the data (indicated by “a,” “b,” “c,”, etc.) confirmed statistically valid different between the treatment results.

[9] = azoxystrobin 0, adjuvant only 6 fl oz/acre
[10] = adjuvant 2 fl oz/acre (0.25×), Quadris 0
[11] = adjuvant 4 fl oz/acre (0.5×), Quadris 0
[12] = adjuvant 6 fl oz/acre ([…]), Quadris 0
[13] = adjuvant 8 fl oz/acre (ADJ1 1×), Quadris 0
[14] = azoxystrobin 0, additive alone (additive rate 0)
[15] = ADJ1 0.25× (adjuvant rate 4 fl oz/acre), Quadris 0
[16] = adjuvant 4 fl oz/acre (ADJ1 0.5×), Quadris 0
[17] = adjuvant 8 fl oz/acre (1×), Quadris 0
[18] = azoxystrobin application rate 5.5
[19] = azoxystrobin application rate 11
[20] = azoxystrobin application rate 22
[21] = azoxystrobin 5.5 fl oz/acre, adjuvant rate 6 fl oz/acre
[22] = azoxystrobin 11 fl oz/acre, adjuvant rate 6 fl oz/acre
[23] = azoxystrobin 5.5 fl oz/acre, no additive
[24] = azoxystrobin 11 fl oz/acre, no additive
[25] = azoxystrobin 16 fl oz/acre, no additive
[26] = azoxystrobin 22 fl oz/acre, no additive

CC(=O)OCc1ccccc1 [ADJ1, benzyl acetate]
disease reduction, in words ([1]; ADJ1 only): Some disease reduction
disease severity, Fourth Week Rating [1, 9]: 48.7
disease severity, One Week Rating [1, 9]: 1.1
disease severity, Third Week Rating [1, 9]: 38.9
disease severity, Two Week Rating [1, 9]: 8
radial growth, 18 hours [2, 10]: 19.9 cm
radial growth, 24 hours [2, 10]: 24.9 cm
radial growth, 36 hours [2, 10]: 39.3 cm
radial growth, 48 hours [2, 10]: 47.9 cm
radial growth, 18 hours [2, 11]: 17 cm
radial growth, 24 hours [2, 11]: 23.7 cm
radial growth, 36 hours [2, 11]: 32.3 cm
radial growth, 48 hours [2, 11]: 46 cm
radial growth, 18 hours [2, 12]: 15.7 cm
radial growth, 24 hours [2, 12]: 26.1 cm
radial growth, 36 hours [2, 12]: 38.8 cm
radial growth, 48 hours [2, 12]: 48.1 cm
radial growth, 18 hours [2, 13]: 15.7 cm
radial growth, 24 hours [2, 13]: 21.3 cm
radial growth, 36 hours [2, 13]: 40.6 cm
radial growth, 48 hours [2, 13]: 50.1 cm
radial growth, 12 hours [2, 14]: 24 cm
radial growth, 24 hours [2, 14]: 41.1 cm
radial growth, 36 hours [2, 14]: 54 cm
control compared to azoxystrobin alone, in words ([2]; susceptible strain, equivalent of 2 oz/acre of ADJ1): comparable control
radial growth, 18 hours [3, 15]: 20.6 cm
radial growth, 24 hours [3, 15]: 30.2 cm
radial growth, 48 hours [3, 15]: 51.2 cm
radial growth, 18 hours [3, 16]: 22.6 cm
radial growth, 24 hours [3, 16]: 28.5 cm
radial growth, 48 hours [3, 16]: 53.9 cm
radial growth, 18 hours [3, 12]: 18.9 cm
radial growth, 24 hours [3, 12]: 23.4 cm
radial growth, 48 hours [3, 12]: 45.9 cm
radial growth, 18 hours [3, 17]: 16.7 cm
radial growth, 24 hours [3, 17]: 10.9 cm
radial growth, 48 hours [3, 17]: 44.4 cm
radial growth, 12 hours [3, 14]: 25 cm
radial growth, 24 hours [3, 14]: 30 cm
growth reduction, in words ([3]; text of Example 2): some efficacy but not at a commercial level control

CN1CCCC1=O [ADJ3, N-methylpyrrolidone]
radial growth, 12 hours [2, 14]: 22.8 cm
radial growth, 24 hours [2, 14]: 41 cm
radial growth, 36 hours [2, 14]: 54.1 cm
radial growth, 12 hours [3, 14]: 27 cm
radial growth, 24 hours [3, 14]: 39 cm

C[n+]1ccc(-c2cc[n+](C)cc2)cc1 [Paraquat]
BD (MG) (%) [4]: 51% and 50% and 81%
BD (GG) (%) [5]: 72% and 60% and 100%

CC(C)(C)C(O)(CCc1ccc(Cl)cc1)Cn1cncn1 (stereo not shown) [Tebuconazole]
Radial growth (cm) at 48 hours ([6]; Tebuconazole 2 oz/acre): 10.72 cm
% Reduction in Radial Growth ([6]; Tebuconazole 2 oz/acre): 32%
Radial growth (cm) at 48 hours ([6]; Tebuconazole 4 oz/acre): 7.8 cm
% Reduction in Radial Growth ([6]; Tebuconazole 4 oz/acre): 50%

CO/C=C(/C(=O)OC)c1ccccc1Oc1cc(Oc2ccccc2C#N)ncn1 [azoxystrobin]
disease severity, Fourth Week Rating [7, 18]: 82.8
disease severity, One Week Rating [7, 18]: 9.2
disease severity, Third Week Rating [7, 18]: 63.3
disease severity, Two Week Rating [7, 18]: 16.9
disease severity, Fourth Week Rating [7, 19]: 65.7
disease severity, One Week Rating [7, 19]: 13.3
disease severity, Third Week Rating [7, 19]: 42
disease severity, Two Week Rating [7, 19]: 16.7
disease severity, Fourth Week Rating [7, 20]: 16.3
disease severity, One Week Rating [7, 20]: 1.1
disease severity, Third Week Rating [7, 20]: 4.8
disease severity, Two Week Rating [7, 20]: 0.2
Severity Ratings, August 31/Upper leaf [8]: 10.3
Severity Ratings, September 7/bottom leaf [8]: 35.5
Severity Ratings, September 7/higher Leaf [8]: 16.3
Severity Ratings, September 7/middle leaf [8]: 3.2
Severity Ratings, September 13/bottom leaf [8]: 18
Severity Ratings, September 20/higher leaf [8]: 11.3
disease severity, Fourth Week Rating [1, 21]: 80.8
disease severity, One Week Rating [1, 21]: 2.1
disease severity, Third Week Rating [1, 21]: 59.4
disease severity, Two Week Rating [1, 21]: 6.6
disease severity, Fourth Week Rating [1, 22]: 76.8
disease severity, One Week Rating [1, 22]: 1.1
disease severity, Third Week Rating [1, 22]: 49.5
disease severity, Two Week Rating [1, 22]: 0
radial growth, 12 hours [2, 23]: 15.3 cm
radial growth, 24 hours [2, 23]: 24.9 cm
radial growth, 36 hours [2, 23]: 34.3 cm
radial growth, 12 hours [2, 24]: 12.5 cm
radial growth, 24 hours [2, 24]: 16.9 cm
radial growth, 36 hours [2, 24]: 23.6 cm
radial growth, 12 hours [2, 25]: 13.4 cm
radial growth, 24 hours [2, 25]: 20 cm
radial growth, 36 hours [2, 25]: 28 cm
radial growth, 12 hours [2, 26]: 15.8 cm
radial growth, 24 hours [2, 26]: 22.9 cm
radial growth, 36 hours [2, 26]: 31.9 cm
radial growth, 12 hours [3, 23]: 31 cm
radial growth, 24 hours [3, 23]: 48 cm
radial growth, 12 hours [3, 24]: 30 cm
radial growth, 24 hours [3, 24]: 48 cm
radial growth, 12 hours [3, 25]: 29 cm
radial growth, 24 hours [3, 25]: 47 cm
radial growth, 12 hours [3, 26]: 22 cm
radial growth, 24 hours [3, 26]: 28 cm
